Key:
[1] = system: isolated rat hearts (wild-type and GPx-TG); experiment: Langendorff isolated heart, zero-flow ischemia followed by reperfusion (Example 1); assay type: ex vivo; details: compared with vehicle control
Experimental: Hearts were isolated from rats and perfused in the Langendorff mode as previously described (Jain et al., Am J Physiol. 2001; 280:H569-H575; Lim et al., Am J Physiol. 1999; 277:H2083-H2090). Briefly, animals were injected intraperitoneally with heparin (10,000 U/kg) and anesthetized with a mixture of ketamine (150 mg/kg) and xylazine (15 mg/kg). The thorax was rapidly opened and the heart excised and arrested in ice-cold saline. A short perfusion cannula was inserted into the aortic root to initiate retrograde perfusion. The hearts were perfused with Krebs-Henseleit buffer (in mmol/L: NaCl 118, KCl 4.7, CaCl2 1.8, KH2PO4 1.2, MgSO4 1.2, NaHCO3 24.0, and glucose 10.0) equilibrated with 95% O2/5% CO2 to yield a pH of 7.4. A thin cannula was pierced through the apex of the left ventricle (LV) to vent thebesian drainage. A ventricular balloon, composed of polyvinyl chloride film and connected to a polyethylene tube, was inserted into the LV through the mitral valve via an incision in the left atrium. The balloon was connected to a pressure transducer (Statham P23Db, Gould) for recording of LV pressures. The balloon was inflated with saline to adjust the end-diastolic pressure (EDP) to 10 mm Hg, and the balloon volume was held constant for the duration of the experiment. Hearts were paced (Grass Instruments) with platinum wires placed on the epicardial surface of the right ventricle. Coronary perfusion pressure was held constant during the duration of the experiment at 80 mm Hg. An inline ultrasonic flow probe (Transonics Systems Inc) was positioned immediately above the aortic cannula to measure coronary flow. Systolic pressure, EDP, and coronary flow were collected online by use of a commercially available data acquisition system (PowerLab ADInstruments). Developed pressure (DevP) (the difference between systolic and diastolic pressures) and EDP were used as indices of contractile and diastolic function, respectively.
During 20 minutes of baseline stabilization, all hearts were maintained at 37° C. and paced at 7 Hz. Hearts were subsequently subjected to 15 minutes of zero-flow ischemia followed by 30 minutes of reperfusion with or without a reperfusion solution containing 23 μM of the SOD mimetic M40403. The EDP was higher and DevP was lower in the wild-type (WT) rats with this treatment compared with vehicle control.

[2] = system: rat hearts; experiment: No-flow ischemia-reperfusion of hearts after 2 weeks of Se supplementation (Example 2); assay type: in vivo; details: 23 μM M40403 in perfusate with sodium selenite 50 μg/kg/day for 2 weeks; compared to M40403 without sodium selenite
Experimental: Hearts were isolated from rats and perfused in the Langendorff mode as previously described (Jain et al., Am J Physiol. 2001; 280:H569-H575; Lim et al., Am J Physiol. 1999; 277:H2083-H2090). Briefly, animals were injected intraperitoneally with heparin (10,000 U/kg) and anesthetized with a mixture of ketamine (150 mg/kg) and xylazine (15 mg/kg). The thorax was rapidly opened and the heart excised and arrested in ice-cold saline. A short perfusion cannula was inserted into the aortic root to initiate retrograde perfusion. The hearts were perfused with Krebs-Henseleit buffer (in mmol/L: NaCl 118, KCl 4.7, CaCl2 1.8, KH2PO4 1.2, MgSO4 1.2, NaHCO3 24.0, and glucose 10.0) equilibrated with 95% O2/5% CO2 to yield a pH of 7.4. A thin cannula was pierced through the apex of the left ventricle (LV) to vent thebesian drainage. A ventricular balloon, composed of polyvinyl chloride film and connected to a polyethylene tube, was inserted into the LV through the mitral valve via an incision in the left atrium. […]
Hearts were treated first for 2 weeks with or without Se supplementation (as sodium selenite, 50 μg/kg/day), after which they were subjected to no-flow ischemia-reperfusion with 23 μM of the SOD mimetic M40403 added to the perfusate. EDP and DevP (as measures of ventricular performance) were monitored over time following restoration of perfusion. […]

[3] = GPx-TG (glutathione peroxidase-1 transgene) with added dietary selenium, 23 μM M40403 in reperfusion solution
[4] = wild-type (WT) rats, 15 min zero-flow ischemia, 30 min reperfusion with 23 μM M40403

## [Cl-].[Cl-].[Mn+2].c1cc2nc(c1)CN[C@@H]1CCCC[C@H]1NCCN[C@@H]1CCCC[C@H]1NC2 [M40403]
[1]; [3]
  developed pressure (DevP): no change
  end-diastolic pressure (EDP): improved EDP (i.e., lower EDP)
[1]; [4]
  developed pressure (DevP): lower
  end-diastolic pressure (EDP): higher
[2]
  end-diastolic pressure (EDP): improved EDP (i.e., lower EDP)

— patent publication US20080139525A1, “ANTIOXIDANT THERAPIES” (The Brigham and Women's Hospital, Inc., priority 2006, published 2008)
